From patent EP1541138A1, “Novel use of peptide compounds for treating status epilepticus or related conditions” (SCHWARZ PHARMA AG, priority 2003, dated 2005)

Assays:
[1] = SSSE after brief electrical stimulation of the perforant path (EEG monitoring for 24 hrs); assay type: in vivo, male Wistar rats; settings: for cumulative seizure duration over the 24h period / time to the last seizure: Experiment 1a: 60 minutes stimulation, i.v. 10 min after end of perforant path stimulation, SPM 927 50 mg/kg, PHT 50 mg/kg, DZP 10 mg/kg, compared to control animals (Fig. 1); for time after injection within which seizures stopped: 50 mg/kg i.v. (fosphenytoin: phenytoin equivalent) 10 min after end of stimulation (Fig. 2A); for Spike frequency (number of spikes/10 min): 50 mg/kg i.v., vs control animals (Fig. 2B)
Method: (§1) Animals: The experiments were performed on male Wistar rats, 280-300g (Simonsen Labs, CA). Animals were kept at a constant room temperature with 12 hours artificial dark-light cycle with free access to standard diet and tap water.
Surgery: Under ketamine (60 mg/kg)/xylazine (15 mg/kg) anesthesia, animals were implanted with a bipolar stimulating electrode into the angular bundle of the perforant path (4.5 mm to left lambda, 1 mm anterior to lambdoid fissure) and a bipolar recording electrode into the granule cell layer of the ipsilateral dentate gyrus (3.5 mm anterior to lambda, 2.2 mm left to saggital fissure). Depth of both electrodes was optimized by monitoring the amplitude and waveform of the population spike evoked from the dentate gyrus by stimuli delivered through the perforant path (single square wave monophasic stimuli, 20 V, 0.1 ms delivered every 10 s).
Induction of self-sustaining status epilepticus (SSSE): Seven days after surgery, animals were connected to a Cardionics 16 channel preamplifier, which was connected to the IBM computer. After 5 minutes of baseline EEG recording, animals were stimulated in the awake state for 60 minutes (Experiment 1 a) or 30 minutes (Experiments 1b and 1 c) with 10 s 20 Hz trains (1 ms square wave, 20 V) delivered every minute, together with 2 Hz continuous stimulation with the same parameters.
EEG monitoring and analysis: EEG from the dentate gyrus was monitored and recorded by means of commercial software (Monitor 8.1 from Stellate Systems). The software was configured for automatic detection and saving of spikes and seizures. Monitoring was performed for 24 hrs. EEG was analyzed off line by means of the same software. Spike distribution was presented as number of spikes per 10 min epoch, and the cumulated duration of seizures for 24 hrs of monitoring were calculated. Statistical analysis was performed by means of T-test. A p value less than 0.05 was considered statistically significant.
Drug administration: SPM 927 (50 mg/kg, 5 animals), phenytoin (PHT) (50 mg/kg), Fosphenytoin (F-PTH Porte-Davis, 50 mg/kg of phenytoin equivalent, 5 animals), diazepam (DZP) (10mg/kg) or vehicle (VEH, 10% DMSO, 6 animals) were given i.v. 10 min after the end of perforant path stimulation in a volume of 1 ml/kg.

[2] = Hippocampal damage following SSSE (count of damaged neurons in brain sections, light microscopy); assay type: in vivo, male Wistar rats
Method: as §1
Surgery: Under ketamine (60 mg/kg)/xylazine (15 mg/kg) anesthesia, animals were implanted with a bipolar stimulating electrode into the angular bundle of the perforant path (4.5 mm to left lambda, 1 mm anterior to lambdoid fissure) and a bipolar recording electrode into the granule cell layer of the ipsilateral dentate gyrus (3.5 mm anterior to lambda, 2.2 mm left to saggital fissure). […]
Selection of sections for counting: Selection of sections for counting was controlled by the stereotaxic atlas for rats (Paxinos and Watson). The 3 sections selected for quantitation contained dorsal hippocampus and were 1.6 ±0.05mm posterior to bregma.
Location of counting fields ― damage to the pyramidal cell layer was assessed by counting damaged neurons in the subiculum, CA1, CA3, CA3c and the hilus in the dorsal hippocampus. The neurons were assessed individually from the beginning of the subiculum to the end of the CA3c region using an Olympus Provis Ax 70 microscope at a magnification of 40x. […]
Criteria for differentiation of damaged versus non-damaged neurons - neurons were counted only if the majority of the nucleus was present in the section. […]

[3] = Chemically induced SSSE (cobalt/homocysteine model, homocysteine thiolactone injection); assay type: in vivo, Male Sprague-Dawley rats
Method: Male Sprague-Dawley rats were prepared surgically with cobalt powder on the left frontal cortical surface.
Recording and stimulation protocol: four epidural recording electrodes arranged in a square grid (5mm) over the cobalt lesion. EEG was monitored daily beginning 4-5 days following surgery. Status epilepticus was induced by i.p. injection of 5.5mmol/kg homocysteine thiolactone whenever focal motor behaviour and EEG seizures were observed.
Drug administration: SPM 927 was administered (10-100mg/kg) immediately following the second generalized tonic-clonic seizure (GTCS) occurring after homocysteine thiolactone injection.

[4] = Experiment 1b: 30 minutes stimulation
[5] = SPM 927 10-100mg/kg immediately following the second GTCS, 30 min following treatment

SMILES	cumulative seizure duration over the 24h period [1]	time to the last seizure [1]	time after injection within which seizures stopped [1, 4]	Spike frequency (number of spikes/10 min) [1, 4]	efficacy on both parameters (cumulative seizure duration, time to the last seizure) when compared to DZP and PHT ([1]; Experiment 1a, SPM 927 50 mg/kg i.v. vs DZP 10 mg/kg and PHT 50 mg/kg (Fig. 1))	recurrence of seizures over the next 24 hrs ([1]; Experiment 1b: 30 minutes stimulation, 50 mg/kg i.v. (Fig. 2A))	time for which only a few single spikes were recorded ([1]; Experiment 1b: 30 minutes stimulation, 50 mg/kg i.v. (Fig. 2B))	injured neurons in hippocampal fields ([2]; Experiment 1c: 30 minutes stimulation, SPM 927 50 mg/kg i.v., brains collected 72 hours after SSSE, subiculum, CA1, CA3, CA3c, hilus)	protection against neuronal injury, statistical significance ([2]; Experiment 1c, vs untreated rats, by hippocampal field)	latency to the first GTCS [3, 5]	mean number of GTCS [3, 5]	number of rats experiencing GTCS ([3]; SPM 927 10-100mg/kg immediately following the second GTCS, observed 30 min following treatment)	GTCS at the highest dose ([3]; highest dose of SPM 927 (range 10-100mg/kg), 30 min following treatment)
CN1C(=O)CN=C(c2ccccc2)c2cc(Cl)ccc21 [DZP, diazepam, reference compound]	potently and significantly reduced	potently and significantly reduced											
O=C1NC(c2ccccc2)(c2ccccc2)C(=O)N1COP(=O)(O)O [Fosphenytoin, reference compound]			≤ 15 min	significantly lower than in control animals but significantly higher than in SPM 927 treated rats									
O=C1NC(=O)C(c2ccccc2)(c2ccccc2)N1 [PHT, phenytoin, reference compound]	potently and significantly reduced	potently and significantly reduced											
COC[C@@H](NC(C)=O)C(=O)NCc1ccccc1 [SPM 927, (R)-2-acetamide-N-benzyl-3-methoxypropionamide]	potently and significantly reduced	potently and significantly reduced	≤ 15 min	significantly decreased	somewhat more efficacious	did not recur	about 12 hrs	only an occasional injured neuron in any hippocampal field	statistically significant in the subiculum, CA1 and CA3	prolonged	potently reduced	reduced in a dose-dependent fashion	completely abolished all GTCS
